Data reported in patent US11987579B2 (Duke University, priority 2018, dated 2024).

Tested on: CCD841Co colonic cells
Experiment: Assessment of oxygen consumption rate (OCR), Seahorse XFp
Assay type: cell-based
Settings: 1 μM FCCP, cells treated with DMSO control media
Experimental: Colonic epithelial CCD841Co cells were plated in Seahorse XFp 8-well miniplates at 8000 cells/well and allowed to attach overnight at 37° C. in a 5% CO2 incubator. Polarographic analysis of OCR was performed using Seahorse XF Analyzer (Agilent Technologies, Santa Clara, Calif.) and a Seahorse XFp Cell Mito Stress Test Kit (Agilent Technologies, catalog number 103010-100). […] Data were analyzed by the software Wave (Version 2.3.0.20, Agilent Technologies, Santa Clara, Calif.).

Structure (SMILES): N#CC(C#N)=NNc1ccc(OC(F)(F)F)cc1 [FCCP]
- oxygen consumption rate after control compound addition: increases oxygen consumption rate
